# In US11872298B2, “Cosmetic use of arthrofactin” (L'OREAL, priority 2016, dated 2024):
# *1 amine or outer side, *2 acyl side, *3 side chain or, on linkers, in order; H or OH if unused. Where a SMILES comes first, the peptide text is derived from it. Bridges are numbered along the chain shown (N, C = ends). [ ]: non-standard residue; d: D form. X1 = CC(C)CCCCCCCCC[C@H](CC(=O)[*:1])O[*:2]
# System: genes associated with moisturization in keratinocytes
# Test: Expression of genes associated with moisturization in keratinocytes cultivated in vitro (quantitative PCR)
# Assay type: cell-based, human
# Conditions: 0.002 mg/L and 0.01 mg/L in water
# Experimental: K266 human epidermic keratinocytes were seeded in wells (50,000 cells/well) and cultivated in a Dermalife K medium (Lifeline LL-007) for 3 days at 37° C. and 5% of CO2. At the end of incubation, the culture medium was replaced by a test medium (K Dermalife supplemented with 1.5 mM CaCl2) containing or not containing (control) the mixture of arthrofactins obtained in example 1 in the form of a powder diluted to 0.1% in water or references (retinoic acid at 0.1 μM and 1 μM, or retinol at 10 μM). The cells were then incubated for 24 hours.
# In parallel, normal human keratinocytes (NHK, 01.12) were seeded in wells (50,000 cells/well) and cultivated in a COMPLETE KGM medium (KGM BULLETKIT, LONZA, CC-3111) for 3 days at 37° C. and 5% of CO2. […]
# The quantification of RNA and quality control were analyzed using LabChip GX (Perkin Elmer). Reverse transcription (RT) of RNA into cDNA was carried out using the Quantitect® inverse transcription kit (QIAGEN) following the manufacturer's recommendations. […]
# The expression of selected transcripts was then analyzed by quantitative PCR using a LightCycler 480 Real-Time PCR System 384-well plate system (Roche) using the SYBR® Green incorporation technique (Roche). […]
smiles,measurement,value
CC(C)CCCCCCCCC[C@@H]1CC(=O)N[C@@H](CCC(=O)O)C(=O)N[C@@H](CC(C)C)C(=O)N[C@H](CC(C)C)C(=O)N[C@@H](C(C)C)C(=O)N[C@@H](CC(=O)O)C(=O)N[C@H](CC(C)C)C(=O)N[C@@H](CC(C)C)C(=O)O1 [Sodium Surfactin] (EL[dL]VD[dL]L; linker N-C via X1),Expression of genes associated with moisturization in keratinocytes,lower expression
